Experimental data: the supplement of paper PMC5579334

Legend:
[1] = test system: HS-PSS; assay: drug sensitivity score (DSS, CellTiter-Glo viability, 72 h) (DSS (dimensionless)); higher = more sensitive; extreme values may be limits of the assay
Summary of the method: (§1)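 Viability of MPNST cell lines and primary human Schwann cells was read as CellTiter-Glo ATP luminescence after 72 h at 37 °C, 5% CO2, in 384-well plates seeded with 750–1000 cells per well. Each compound had been preprinted at five concentrations in 10-fold steps. Signals were scaled between vehicle and positive-control wells, duplicates averaged where present, and fitted with four-parameter logistic curves. Drug sensitivity score and relative IC50 (censored at the top concentration) come from those fits, and percent inhibition is taken at the top concentration.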

[2] = test system: YST-1; assay: as above
Summary of the method: as §1

[3] = test system: HS-Sch-2; assay: as above
Summary of the method: as §1

[4] = test system: HS-PSS; assay: drug sensitivity score (DSS, CellTox-Green cytotoxicity, 72 h) (DSS (dimensionless)); higher = more cytotoxic; extreme values may be limits of the assay
Summary of the method: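 MPNST cell lines and primary human Schwann cells were grown for 72 h at 37 °C in 384-well plates containing five 10-fold compound dilutions. CellTox-Green, added before seeding at a final 1:1000 dilution, gave fluorescence from DNA released by disrupted cells, and signals were scaled to vehicle and positive-control wells. Curves were fitted with a four-parameter logistic model. Drug sensitivity score and relative IC50 come from these fits, with IC50 censored at the top concentration.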

[5] = test system: HS-PSS; assay: % inhibition of CellTiter-Glo viability at highest tested concentration (72 h), relative to DMSO and benzethonium chloride controls; higher = more inhibition
Summary of the method: as §1

[6] = test system: YST-1; assay: as above
Summary of the method: as §1

[7] = test system: HS-Sch-2; assay: as above
Summary of the method: as §1

SMILES | drug sensitivity score [1] | drug sensitivity score [2] | drug sensitivity score [3] | drug sensitivity score [4] | % inhibition [5] [%] | % inhibition [6] [%] | % inhibition [7] [%]
CC(=O)O[C@]1(C(C)=O)CC[C@H]2[C@@H]3C=C(C)C4=CC(=O)CC[C@]4(C)[C@H]3CC[C@@]21C [Megestrol acetate] (max concentration tested 10000 nM) | 0 | 0 | 0 | 0 | -2.66 | 6.88 | 2.53
c1ccc(Cn2c(-c3ccc(OC[C@H](C4CCNCC4)n4c(-c5ccccc5)nc5ccccc54)cc3)nc3ccccc32)cc1 [deltarasin] (max concentration tested 10000 nM) | 6.88 | 5.29 | 5.77 | 5.68 | 101 | 100 | 101
CC(=O)N(O)CCCCCNC(=O)CCC(=O)N(O)CCCCCNC(=O)CCC(=O)N(O)CCCCCN [Deferoxamine] (max concentration tested 10000 nM) | 8.62 | 6.36 | 10.5 | 1 | 89.5 | 78.5 | 96.3
CCOc1cc2ncc(C#N)c(Nc3ccc(F)c(Cl)c3)c2cc1NC(=O)/C=C/CN(C)C [Pelitinib] (max concentration tested 2500 nM) | 12.8 | 4.87 | 11 | 1.05 | 73.9 | 47.9 | 89.6
Nc1ncnc2c1c(-c1cccc(OCc3ccccc3)c1)cn2[C@H]1C[C@@H](CN2CCC2)C1 [NVP-AEW541] (max concentration tested 10000 nM) | 5.83 | 13 | 8.08 | 7.08 | 100 | 98.3 | 99.8
CN(C)c1cc2c(cc1Sc1nc3c(N)nccc3n1CCNCC(C)(C)C)OCO2 [CUDC-305] (max concentration tested 10000 nM) | 13.1 | 12.6 | 19.6 | 4.43 | 84.7 | 81.7 | 101
NC(=S)N/N=C/c1ncccc1N [Triapine] (max concentration tested 10000 nM) | 4.81 | 2.82 | 5.68 | 0.94 | 65.6 | 63.8 | 63.9
S=C(NCc1ccc2c(c1)OCO2)N1CCN(c2ncnc3c2oc2ccccc23)CC1 [Amuvatinib] (max concentration tested 10000 nM) | 9.62 | 1.22 | 6.77 | 0 | 83.6 | 31.3 | 86.5
C[C@@H]1CN(CC(=O)Nc2ccc3c(c2)Cc2cccc(-c4cc(=O)cc(N5CCOCC5)o4)c2S3)C[C@H](C)O1 (max concentration tested 25000 nM) | 1.79 | 1.74 | 8.7 | 0 | 45.7 | 41.4 | 97.9
COc1cc(C(=O)O)ccc1NC(=O)[C@@H]1N[C@@H](CC(C)(C)C)[C@](C#N)(c2ccc(Cl)cc2F)[C@H]1c1cccc(Cl)c1F [Idasanutlin] (max concentration tested 10000 nM) | 5.43 | 25.1 | 0 | 0 | 26.1 | 98.6 | -12.1
CCCNC(=O)Nc1ccc(Oc2ncnc3cc(OC)c(OC)cc23)cc1Cl [KRN-633] (max concentration tested 2500 nM) | 0 | 0 | 0 | 0 | 10.5 | 7.23 | -7.09
Cc1sc2c(c1C)C(c1ccc(Cl)cc1)=N[C@@H](CC(=O)Nc1ccc(O)cc1)c1nnc(C)n1-2 [OTX015] (max concentration tested 10000 nM) | 10.7 | 14.5 | 14.6 | 0 | 59.5 | 69.2 | 75.4
CNC(=O)c1nn(C)c2c1C(C)(C)Cc1cnc(Nc3ccc(N4CCN(C)CC4)cc3)nc1-2 [Milciclib] (max concentration tested 10000 nM) | 9.77 | 16.6 | 9.72 | 0.17 | 79.3 | 101 | 96
CNC(=O)c1ccc2cc([C@@]3(O)CCn4cncc43)ccc2c1 [Orteronel] (max concentration tested 10000 nM) | 0 | 0 | 0 | 0 | -7 | 7.23 | -4.34
CN(c1ncccc1CNc1nc(Nc2ccc3c(c2)CC(=O)N3)ncc1C(F)(F)F)S(C)(=O)=O (max concentration tested 10000 nM) | 3.86 | 7.85 | 5.18 | 0.03 | 73.3 | 98.6 | 99.2
CNC(=O)c1cccc2cc(Oc3ccnc4cc(OCC5(N)CC5)c(OC)cc34)ccc12 [Lucitanib] (max concentration tested 10000 nM) | 1.71 | 2.13 | 1.19 | 0 | 23.4 | 26.4 | 31.9
CNC(=O)c1ccccc1Nc1cc(Nc2ccc(N3CCOCC3)cc2OC)ncc1C(F)(F)F [VS-4718] (max concentration tested 10000 nM) | 3.23 | 4.99 | 3.18 | 0.03 | 68.6 | 45.2 | 50.4
Cc1cc(-c2nc(-c3ccc(OC(F)(F)F)cc3)no2)nn1Cc1ccnc(N2CCN(C3CC3)CC2)c1 [BAY 87-2243] (max concentration tested 1000 nM) | 31.7 | 2.18 | 26.4 | 0 | 74.5 | 15.5 | 65.9

SMILES | drug sensitivity score [1] | drug sensitivity score [2] | drug sensitivity score [3] | drug sensitivity score [4] | % inhibition [5] [%] | % inhibition [6] [%] | % inhibition [7] [%]
COc1cc(Nc2ncc(F)c(Nc3ccc4c(n3)N(COP(=O)(O)O)C(=O)C(C)(C)O4)n2)cc(OC)c1OC [Fostamatinib] (max concentration tested 2500 nM) | 2.95 | 4.22 | 2.96 | 0 | 40.4 | 67.3 | 36
CCN(CC)Cc1ccc2cc(COC(=O)Nc3ccc(C(=O)NO)cc3)ccc2c1 [Givinostat] (max concentration tested 1000 nM) | 3.45 | 13.1 | 8.81 | 1.98 | 69.4 | 98.9 | 98
O=C(/C=C\n1cnc(-c2cc(C(F)(F)F)cc(C(F)(F)F)c2)n1)NNc1cnccn1 [Selinexor] (max concentration tested 10000 nM) | 11.3 | 21.4 | 19.8 | 1.86 | 72.3 | 95.3 | 101
c1cc(CN2CCCNCCNCCCNCC2)ccc1CN1CCCNCCNCCCNCC1 [Plerixafor] (max concentration tested 10000 nM) | 0.55 | 0 | 0 | 0 | 14.2 | -8.03 | 5.96
CCc1cc(Nc2nccc(-c3c(-c4ccc(OC)c(C(=O)Nc5c(F)cccc5F)c4)nc4ccccn34)n2)c(OC)cc1N1CCC(N2CCN(S(C)(=O)=O)CC2)CC1 (max concentration tested 10000 nM) | 0 | 16.1 | 0.89 | 0 | 4.32 | 52.3 | 7.21
Cc1cc([C@@H](C)Nc2ccccc2C(=O)O)c2nc(N3CCOCC3)cc(=O)n2c1 [AZD-6482] (max concentration tested 2500 nM) | 0 | 0.53 | 0 | 0 | 9.25 | 17.1 | 0.36
COCC(=O)NC/C=C/c1ccc2ncnc(Nc3ccc(Oc4ccc(C)nc4)c(C)c3)c2c1 (max concentration tested 10000 nM) | 5.3 | 0.62 | 3.05 | 0 | 56.7 | 19.9 | 32.2
COC(=O)c1ccc2c(c1)[nH]c1ncnc(NCCCN3CCCCC3)c12 [UM729] (max concentration tested 10000 nM) | 0.05 | 3.85 | 1.25 | 0 | 13.2 | 35.4 | 29
NC(=O)c1cccc2cn(-c3ccc(C4CCCNC4)cc3)nc12 (stereo not given) [Niraparib] (max concentration tested 10000 nM) | 4.28 | 7.91 | 2.37 | 0.21 | 50.4 | 54.5 | 26.4
CCNC(=O)c1noc(-c2cc(C(C)C)c(O)cc2O)c1-c1ccc(CN2CCOCC2)cc1 [Luminespib] (max concentration tested 1000 nM) | 14 | 19.5 | 23.5 | 3.7 | 82.2 | 79.6 | 98.9
C[C@H]1C=C2C(=O)O[C@H]3CC[C@@H](C1)[C@@]23O [Galiellalactone] (max concentration tested 25000 nM) | 3.82 | 2.78 | 7.88 | 0 | 58.6 | 64.8 | 93.5
Nc1nc2[nH]cc(CCc3ccc(C(=O)N[C@@H](CCC(=O)O)C(=O)O)cc3)c2c(=O)[nH]1 [Pemetrexed] (max concentration tested 10000 nM) | 0 | 4.42 | 17.1 | 0 | 6.45 | 19.7 | 62.5
O=C(O)C(=O)O.[NH-][C@@H]1CCCC[C@H]1[NH-].[Pt+2] [Oxaliplatin] (max concentration tested 100000 nM) | 8.54 | 19.6 | 11.4 | 3.02 | 69.2 | 97.7 | 100
CNC(=O)c1cc(COc2nnc(Nc3ccc(Cl)cc3)c3ccoc23)ccn1 [Telatinib] (max concentration tested 10000 nM) | 0 | 0.77 | 0 | 0 | 5.71 | 6.98 | 8.79
C[C@@H]1COC(Nc2ccc3ncnc(Nc4ccc(OCc5nccs5)c(Cl)c4)c3c2)=N1 [Varlitinib] (max concentration tested 10000 nM) | 5.07 | 3.23 | 2.41 | 0 | 42 | 27.7 | 30.6
O=C(Nc1cccc(Cl)c1)Nc1ncc(CCNc2ncnc3ccsc23)s1 [SNS-314] (max concentration tested 1000 nM) | 2.01 | 8.57 | 4.4 | 0 | 23.8 | 36.5 | 53.3
NC(=O)N1CCC(CC(=O)N2CCC([C@H]3c4ncc(Br)cc4CCc4cc(Cl)cc(Br)c43)CC2)CC1 [Lonafarnib] (max concentration tested 10000 nM) | 4.36 | 5.95 | 4.95 | 0 | 58 | 64.4 | 55.5
